Measurements as given in patent publication US8168638B2, “Pyrazinecarboxamide derivatives and plant disease controlling agents containing the same” (Nihon Nohyaku Co., Ltd., priority 2005, dated 2012).

Tested on: Blumeria graminis f. sp. hordei
Assay: Test on the controlling effect against powdery mildew of barley plant
Type: in vivo
Settings: barley plant (Kantoh No. 6), foliar application, active-ingredient concentration 200 ppm, application rate 50 mL, 7 days after inoculation
Description: Equation (1): Protective value (%)=A/B×100 (1) where: • A; [(Ratio of the afflicted spotted leaf surface area in non-treated section to the total leaf surface area)−(Ratio of the afflicted spotted leaf surface area in treated section to the total leaf surface area)] • B; (Ratio of the afflicted spotted leaf surface area in non-treated section to the total leaf surface area) Criteria of Judgment: 0: Less than […] in protective value 1: 10 to 19% in protective value 2: 20 to 29% in protective value 3: 30 to 39% in protective value 4: 40 to 49% in protective value 5: 50 to 59% in protective value 6: 60 to 69% in protective value 7: 70 to 79% in protective value 8: 80 to 89% in protective value 9: 90 to 99% in protective value 10: 100% in protective value A one-leaf aged barley plant (the cultivar: Kantoh No. 6) raised as a seedling in a pot of 6 cm in diameter was subjected to foliar application with a diluted emulsion of the emulsifiable concentrate of the compound of the present invention prepared in accordance with Agrochemical Formulation Example 1, which diluted emulsion was produced by diluting the concentrate with water to the specifically determined volume. […] Seven days after the inoculation, the controlling effect was assessed according the criteria of judgment as set forth in Test Example 1.

O=C(Nc1ccccc1-c1ccc(Cl)cc1)c1cccnc1Cl [Control Compound C, 2-Chloro-N-(4′-chlorobiphenyl-2-yl)-nicotinamide]
controlling effect assessed according to the criteria of judgment: 4 (40 to 49% in protective value)
